Source: US8324390B2, “Tetrazole-substituted anthranilamides as pesticides” (Bayer CropScience AG, priority 2008, dated 2012)
Read-outs that look alike come from different tables or passages of the source. One block for each molecule: values may come before it.

Experiments:
[1] = log P determination by HPLC (EEC Directive 79/831 Annex V.A8); format: physicochemical
Procedure: The measurements were carried out using an Agilent 1100 LC system with a 50*4.6 Zorbax Eclipse C18 1.8 μm column (oven temperature 55° C., flow rate 2.0 ml/min).
The following mobile phases were used:
Mobile phase A: acetonitrile+1000 μl of formic acid/l
Mobile phase B: Millipore water+900 μl of formic acid/l

[2] = system: larvae of the mustard beetle (Phaedon cochleariae); assay: Phaedon test (PHAECO spray treatment); conditions: Phaedon cochleariae, in Brassica rapa, foliar, read-out: effect in % (beetle larvae killed)
[3] = system: caterpillars of the armyworm (Spodoptera frugiperda); assay: Spodoptera frugiperda test (SPODFR spray treatment); format: in vivo; conditions: Spodoptera frugiperda, foliar, read-out: effect in % (caterpillars killed)
Excerpt: Solvent: 78.0 parts by weight of acetone

[4] = reversed-phase HPLC, Zorbax Eclipse C18 column, determined by HPLC according to EEC Directive 79/831 Annex V.A8, read-out: log P
[5] = application rate 100 g/ha, maize leaf discs
[6] = by HPLC according to EEC Directive 79/831 Annex V.A8, read-out: log P

SMILES: Cc1cc(Br)cc(C(=O)NC2CC2)c1NC(=O)c1cc(Cn2nnc(C(F)(F)C(F)(F)F)n2)nn1-c1ncccc1Cl [Example 145]
chromatographic logP ([1]; log P): 3.74
pest or weed control at 100 g/ha [2]: ≥ 80%
pest or weed control at 100 g/ha ([3]; in Zea mays): ≥ 80%

chromatographic logP [1, 4]: 4.73
SMILES: Cc1cc(Cl)cc(C(=O)NC(C)(C)C)c1NC(=O)c1cc(Cn2nnc(C(F)(F)C(F)(F)F)n2)nn1-c1ccccc1Cl [Example 535]
pest or weed control at 100 g/ha [2]: ≥ 80%
pest or weed control at 100 g/ha [3, 5]: ≥ 80%

chromatographic logP ([1]; reversed-phase HPLC, Zorbax Eclipse C18 column, by HPLC according to EEC Directive 79/831 Annex V.A8, read-out: log P): 3.01
SMILES: CNC(=O)c1cc(Cl)cc(C)c1NC(=O)c1cc(Cn2nnc(C(F)(F)F)n2)nn1-c1ncccc1Br [Example 331]
pest or weed control at 100 g/ha [2]: ≥ 80%
pest or weed control at 100 g/ha [3, 5]: ≥ 80%

SMILES: Cc1cc(C#N)cc(C(=O)NCC2CCCCC2)c1NC(=O)c1cc(Cn2nnnc2C(F)(F)F)nn1-c1ncccc1Cl [Example 195]
chromatographic logP ([1]; log P): 3.26
pest or weed control at 100 g/ha [2]: ≥ 80%
pest or weed control at 100 g/ha ([3]; in Zea mays): ≥ 80%

SMILES: CNC(=O)c1cc(Cl)cc(C)c1NC(=O)c1cc(Cn2nnc(C(F)(F)C(F)(F)F)n2)nn1-c1ncccc1Cl [Example 125]
chromatographic logP ([1]; log P): 3.39
pest or weed control at 100 g/ha [2]: ≥ 80%
pest or weed control at 100 g/ha ([3]; in Zea mays): ≥ 80%

SMILES: Cc1cc(C#N)cc(C(=O)NCCCN)c1NC(=O)c1cc(Cn2nnc(C(F)(F)F)n2)nn1-c1ncccc1Cl [Example 124]
chromatographic logP ([1]; log P): 1.63
pest or weed control at 100 g/ha [2]: ≥ 80%
pest or weed control at 100 g/ha ([3]; in Zea mays): ≥ 80%

SMILES: O=C(NC1CCC1)c1cc(Cl)cc(Cl)c1NC(=O)c1cc(Cn2nnc(C(F)(F)C(F)(F)F)n2)nn1-c1ncccc1Cl [Example 157]
chromatographic logP ([1]; log P): 3.92
pest or weed control at 100 g/ha [2]: ≥ 80%
pest or weed control at 100 g/ha ([3]; in Zea mays): ≥ 80%

SMILES: Cc1cc(C#N)cc(C(=O)NC(C)(C)C)c1NC(=O)c1cc(C(C)n2nnc(C(F)(F)F)n2)nn1-c1ncccc1Cl (stereo not drawn) [Example 436]
chromatographic logP ([1]; log P): 3.7
pest or weed control at 100 g/ha [2]: ≥ 80%
pest or weed control at 100 g/ha ([3]; in Zea mays): ≥ 80%

SMILES: CNC(=O)c1cc(I)cc(C)c1NC(=O)c1cc(Cn2nnc(C(F)(F)C(F)(F)C(F)(F)F)n2)nn1-c1ncccc1Cl [Example 112]
chromatographic logP [1, 6]: 3.99
pest or weed control at 100 g/ha [2]: ≥ 80%
pest or weed control at 100 g/ha ([3]; in Zea mays): ≥ 80%

chromatographic logP [1, 4]: 4.16
SMILES: Cc1cc(C#N)cc(C(=O)NC(C)(C)C)c1NC(=O)c1cc(Cn2nnc(C(F)(F)F)n2)nn1-c1ccc(Cl)cc1 [Example 527]
pest or weed control at 100 g/ha [2]: ≥ 80%
pest or weed control at 100 g/ha [3, 5]: ≥ 80%

SMILES: O=C(NC1CC1)c1cc(Cl)cc(Cl)c1NC(=O)c1cc(Cn2nnnc2C(F)(F)C(F)(F)F)nn1-c1ncccc1Cl [Example 204]
chromatographic logP ([1]; log P): 3.24
pest or weed control at 100 g/ha [2]: ≥ 80%
pest or weed control at 100 g/ha ([3]; in Zea mays): ≥ 80%

SMILES: Cc1cc(I)cc(C(N)=O)c1NC(=O)c1cc(Cn2nnc(C(F)(F)C(F)(F)C(F)(F)F)n2)nn1-c1ncccc1Cl [Example 110]
chromatographic logP [1, 6]: 3.7
pest or weed control at 100 g/ha [2]: ≥ 80%
pest or weed control at 100 g/ha ([3]; in Zea mays): ≥ 80%

SMILES: CNC(=O)c1cc(C#N)cc(C)c1NC(=O)c1cc(Cn2nnc(C(F)(F)C(F)(F)F)n2)nn1-c1ncccc1Cl [Example 213]
chromatographic logP ([1]; log P): 3.05
pest or weed control at 100 g/ha [2]: ≥ 80%
pest or weed control at 100 g/ha ([3]; in Zea mays): ≥ 80%

chromatographic logP [1, 4]: 3.3
SMILES: CCNC(=O)c1cc(I)cc(C)c1NC(=O)c1cc(Cn2nnnc2C(F)(F)F)nn1-c1ncccc1C(F)(F)F [Example 457]
pest or weed control at 100 g/ha [2]: ≥ 80%
pest or weed control at 100 g/ha [3, 5]: ≥ 80%

SMILES: O=C(NC1CC1)c1cc(Cl)cc(Cl)c1NC(=O)c1cc(Cn2nnc(C(F)(F)F)n2)nn1-c1ncccc1Cl [Example 57]
chromatographic logP ([1]; log P): 3.18
pest or weed control at 100 g/ha [2]: ≥ 80%
pest or weed control at 100 g/ha ([3]; in Zea mays): ≥ 80%

SMILES: C=CCNC(=O)c1cc(Cl)cc(C)c1NC(=O)c1cc(Cn2nnc(C(F)(F)F)n2)nn1-c1ncccc1Cl [Example 319]
chromatographic logP ([1]; log P): 3.34
pest or weed control at 100 g/ha [2]: ≥ 80%
pest or weed control at 100 g/ha ([3]; in Zea mays): ≥ 80%

chromatographic logP [1, 4]: 3.19
SMILES: CNC(=O)c1cc(Cl)cc(C)c1NC(=O)c1cc(Cn2nnc(C(F)(F)F)n2)nn1-c1ccccc1 [Example 404]
pest or weed control at 100 g/ha [2]: ≥ 80%
pest or weed control at 100 g/ha [3, 5]: ≥ 80%

SMILES: Cc1cc(C)c(NC(=O)c2cc(Cn3nnc(C(F)(F)F)n3)nn2-c2ncccc2Cl)c(C(=O)NCC#N)c1 [Example 85]
chromatographic logP ([1]; log P): 2.83
pest or weed control at 100 g/ha [2]: ≥ 80%
pest or weed control at 100 g/ha ([3]; in Zea mays): ≥ 80%

SMILES: Cc1cc(C#N)cc(C(=O)NCC#N)c1NC(=O)c1cc(Cn2nnnc2C(F)(F)F)nn1-c1ncccc1Cl [Example 208]
chromatographic logP ([1]; log P): 2.31
pest or weed control at 100 g/ha [2]: ≥ 80%
pest or weed control at 100 g/ha ([3]; in Zea mays): ≥ 80%
